± gives the standard deviation.
Assay: chemical recovery from spiked human plasma; higher = better extraction
Details: pooled human plasma
[1] = extraction method: PES+SPE (3 d PDMS equilibration then HLB SPE)
[2] = extraction method: SPE only (HLB 96-well)
[3] = extraction method: solvent precipitation (ACN + hexane)
[4] = extraction method: SPE only (HLB 96-well), PES comparison experiment

SMILES | chemical recovery [1] | chemical recovery [2] | chemical recovery [3] | chemical recovery [4]
CC(C)N1C(=O)c2ccccc2N(C)S1(=O)=O [Bentazone-methyl] | 53.5 ± 11% | 28.9 ± 1.5% | 46.3 ± 5.3% | 
c1ccc2[nH]cnc2c1 [Benzimidazole] | 16.9 ± 4.1% | 4.01 ± 3.3% | 72 ± 2.6% | 
c1ccc2c(c1)ccc1sc3ccccc3c12 [Benzo[b]naphtho(1,2-d)thiophene] |  | 0.745 ± 0.2% | 20.4 ± 2.6% | 
c1ccc2cc3c(cc2c1)sc1ccccc13 [Benzo[b]naphtho(2,3-d)thiophene] | 61.7 ± 20% | 0.871 ± 0.26% | 63.3 ± 6.8% | 
O=C(OCc1ccccc1)c1ccccc1O [Benzyl salicylate] |  | 1.14 ± 0.085% | 26.5 ± 2.6% | 
c1ccc(COc2ccc3ccccc3c2)cc1 [Benzyl-2-naphthylether] |  | 0.473 ± 0.12% | 24.2 ± 0.93% | 
CCCCCCCCCC[N+](C)(C)Cc1ccccc1 [Benzyldimethyldecylammonium] |  |  | 66.1 ± 3.3% | 
CCCCCCCCCCCCCCCC[N+](C)(C)Cc1ccccc1 [Benzyldimethylhexadecylammonium] |  |  | 63.9 ± 7.4% | 
C[N+](C)(C)Cc1ccccc1 [Benzyltrimethylammonium] |  | 3.88 ± 2.8% | 75.8 ± 2.6% | 
Cc1c(COC(=O)C2C(/C=C(\Cl)C(F)(F)F)C2(C)C)cccc1-c1ccccc1 (stereo unspecified) [Bifenthrin] |  | 0.536 ± 0.24% | 18.9 ± 3.9% | 
CCCCC(CC)COP(=O)(O)OCC(CC)CCCC (stereo unspecified) [Bis(2-ethylhexyl)phosphate] | 16.4 ± 4.5% | 20.3 ± 2.5% | 52.8 ± 4.3% | 3.88 ± 1.6%
CCCCCC(CCC)COC(=O)c1ccccc1C(=O)OCC(CCC)CCCCC (stereo unspecified) [Bis(2-propylheptyl)-phthalate] |  |  | 70.9 ± 7.4% | 
CC1CC(CC2CCC(N)C(C)C2)CCC1N (stereo unspecified) [Bis(4-amino-3-methylcyclohexyl)methane] |  |  | 41.1 ± 7.7% | 
Oc1ccc(C(c2ccc(O)cc2)(C(F)(F)F)C(F)(F)F)cc1 [Bisphenol-AF] | 86.8 ± 4.4% | 51.2 ± 7.6% | 41.6 ± 2.4% | 
CC(C)(c1ccc(O)cc1)c1ccc(O)cc1 [Bisphenol-A] | 69.8 ± 4.4% | 45.4 ± 3.8% |  | 
Oc1ccc(C(c2ccccc2)(c2ccccc2)c2ccc(O)cc2)cc1 [Bisphenol-BP] |  | 40.9 ± 7.5% | 35.1 ± 3.6% | 
CCC(C)(c1ccc(O)cc1)c1ccc(O)cc1 [Bisphenol-B] | 63.4 ± 2% | 45.4 ± 1.4% | 49.7 ± 3.2% | 
Cc1cc(C(C)(C)c2ccc(O)c(C)c2)ccc1O [Bisphenol-C] | 52.7 ± 2.9% | 34.5 ± 4.8% | 39.4 ± 2.5% | 
CC(c1ccc(O)cc1)c1ccc(O)cc1 [Bisphenol-E] | 62.3 ± 2.5% | 51 ± 4% | 63.7 ± 3.1% | 
Oc1ccc(C2(c3ccc(O)cc3)c3ccccc3-c3ccccc32)cc1 [Bisphenol-FL] |  | 34.3 ± 5.9% | 26.8 ± 4.5% | 
Oc1ccc(Cc2ccc(O)cc2)cc1 [Bisphenol-F] | 70.2 ± 3.4% | 56 ± 2.6% | 72.6 ± 3.6% | 
CC(C)c1cc(C(C)(C)c2ccc(O)c(C(C)C)c2)ccc1O [Bisphenol-G] |  | 8.379 ± 0.058% | 39.5 ± 3.7% | 
CC(C)(c1ccc(O)c(-c2ccccc2)c1)c1ccc(O)c(-c2ccccc2)c1 [Bisphenol-PH] | 64.8 ± 12% | 26.7 ± 7% | 38 ± 5% | 
CCC(C)n1c(=O)[nH]c(C)c(Br)c1=O (stereo unspecified) [Bromacil] | 64.5 ± 4.7% | 49.3 ± 3% | 72.7 ± 2.8% | 

SMILES | chemical recovery [1] | chemical recovery [2] | chemical recovery [3] | chemical recovery [4]
CC(NC(C)(C)C)C(=O)c1cccc(Cl)c1 (stereo unspecified) [Bupropion] | 0.191 ± 0.047% | 37.7 ± 3.8% | 23.5 ± 3.1% | 38.7 ± 8.2%
CNC(=O)ON=C(C)C(C)SC (stereo unspecified) [Butocarboxim] |  |  |  | 46.4 ± 8.7%
Oc1ccc2c(c1)[C@@]13CCCC[C@@]1(O)[C@@H](C2)N(CC1CCC1)CC3 [Butorphanol] |  | 34.7 ± 9.8% | 65.5 ± 6.6% | 
CCCCOC(=O)c1ccc(O)cc1 [Butylparaben] | 51.3 ± 3.1% | 37.5 ± 1.3% | 64.9 ± 1.9% | 
CNC(=O)Oc1cccc2c1OC(C)(C)C2 [Carbofuran] | 41.4 ± 4.8% | 43.6 ± 1.7% | 47.2 ± 7% | 
c1ccc2c(c1)[nH]c1ncccc12 [Carboline] | 28 ± 5.2% | 40.3 ± 2.9% | 72.2 ± 3.8% | 
Nc1nc2c(ncn2COCC(=O)O)c(=O)[nH]1 [Carboxy-aciclovir] |  | 1.5 ± 1.3% |  | 
CCCC(C)(COC(N)=O)COC(=O)NC(C)C (stereo unspecified) [Carisoprodol] |  |  | 78.1 ± 5.9% | 
C[C@H](CCC(=O)O)[C@H]1CC[C@H]2[C@@H]3[C@H](O)C[C@@H]4C[C@H](O)CC[C@]4(C)[C@H]3CC[C@]12C [Chenodeoxycholic-acid] |  | 37.4 ± 7.9% | 74.9 ± 4.7% | 
CNC(=O)c1cc(Cl)cc(C)c1NC(=O)c1cc(Br)nn1-c1ncccc1Cl [Chlorantraniliprole] | 66.7 ± 5.2% | 49.5 ± 2.3% | 75.5 ± 1.2% | 
Cc1cc(Cl)ccc1/N=C/N(C)C [Chlordimeform] | 28.8 ± 4.5% | 24.7 ± 4.2% | 30.1 ± 3.3% | 
O=C(O)C1C(C(=O)O)C2(Cl)C(Cl)=C(Cl)C1(Cl)C2(Cl)Cl (stereo unspecified) [Chlorendic-acid] | 27 ± 6.5% | 23.9 ± 3.7% | 28.2 ± 7.5% | 
C[N+](C)(C)CCCl [Chlormequat] | 0.51 ± 0.024% | 0.778 ± 0.52% | 85 ± 12% | 10.2 ± 8.2%
N=C(NCCCCCCNC(=N)NC(=N)Nc1ccc(Cl)cc1)NC(=N)Nc1ccc(Cl)cc1 [Chlorohexidine] |  |  | 54.5 ± 1.9% | 
COc1nc(C)nc(NC(=O)NS(=O)(=O)c2ccccc2Cl)n1 [Chlorosulfuron] |  |  | 67.9 ± 3.4% | 
N#Cc1c(O)c(Cl)c(Cl)c(C#N)c1Cl [Chlorothalonil-4-hydroxy] | 37.1 ± 5.2% | 32.4 ± 3% |  | 33.8 ± 7.8%
N#Cc1cc(Cl)c(O)c(Cl)c1 [Chloroxynil] | 59 ± 2.5% | 46.1 ± 5.2% | 74.3 ± 3.8% | 
CN(C)CCC(c1ccc(Cl)cc1)c1ccccn1 (stereo unspecified) [Chlorpheniramine] | 0.333 ± 0.13% | 33.5 ± 3.4% | 54 ± 5.6% | 
CCCNC(=O)NS(=O)(=O)c1ccc(Cl)cc1 [Chlorpropamide] | 55.3 ± 5% | 47.5 ± 3.5% | 76.8 ± 4.6% | 
CC(C)OC(=O)Nc1cccc(Cl)c1 [Chlorpropham] | 37.9 ± 13% | 41.5 ± 2.7% | 43.8 ± 4.5% | 
CCOP(=S)(OCC)Oc1nc(Cl)c(Cl)cc1Cl [Chlorpyrifos] |  |  |  | 33.3 ± 7.2%
C[C@H](CCC(=O)O)[C@H]1CC[C@H]2[C@@H]3[C@H](O)C[C@@H]4C[C@H](O)CC[C@]4(C)[C@H]3C[C@H](O)[C@]12C [Cholic-acid] |  | 48.4 ± 3.9% |  | 
c1ccc2c(c1)ccc1c3ccccc3ccc21 [Chrysene] |  | 10.9 ± 2.5% |  | 
CN/C(=N\CCSCc1nc[nH]c1C)NC#N [Cimetidine] |  |  | 54.8 ± 1.7% | 

SMILES | chemical recovery [1] | chemical recovery [2] | chemical recovery [3] | chemical recovery [4]
CCCC1CC(C(=O)NC(C(C)Cl)C2OC(SC)C(O)C(O)C2O)N(C)C1 (stereo unspecified) [Clindamycin] | 36.7 ± 3.7% | 37.9 ± 2.5% | 65.5 ± 3.8% | 
Clc1ccccc1C(c1ccccc1)(c1ccccc1)n1ccnc1 [Clotrimazole] |  |  |  | 56.3 ± 11%
COc1cc2c(c(OC)c1OC)-c1ccc(OC)c(=O)cc1[C@@H](NC(C)=O)CC2 [Colchicine] | 48.5 ± 3.6% | 45 ± 3.9% | 70 ± 2.5% | 
Cc1ccc(-c2c(Cl)nc(C#N)n2S(=O)(=O)N(C)C)cc1 [Cyazofamid] |  | 41 ± 2% |  | 
O=C1CCCCCCCCCCC1 [Cyclododecanone] |  | 4.5 ± 3.9% |  | 
NC1CCCCC1 [Cyclohexylamine] | 2.9 ± 1.6% | 2.07 ± 3.6% | 35.9 ± 9.5% | 
O=C(c1ccccc1)C1CCCCC1 [Cyclohexylphenylketone] |  | 9.88 ± 8.6% |  | 
OC[C@@H](O)[C@@H](O)[C@H](O)[C@@H](O)CO [D-Glucitol] |  | 3.85 ± 1.9% |  | 
CCN(CC)C(=O)c1cccc(C(=O)O)c1 [DEET-carboxylic-acid] | 42.3 ± 4.4% | 43.9 ± 4.5% | 68.1 ± 5.1% | 
CCN(CC)C(=O)c1cccc(C)c1 [DEET] |  | 30.1 ± 3% | 52.6 ± 4.4% | 
CC(C)CCCCCCOC(=O)C1CCCCC1C(=O)OCCCCCCC(C)C (stereo unspecified) [DINCH] |  | 6.04 ± 3.4% |  | 4.77 ± 1.6%
O=C(O)c1cc(SSc2ccc([N+](=O)[O-])c(C(=O)O)c2)ccc1[N+](=O)[O-] [DTNB] | 0.204 ± 0.051% |  | 0.0596 ± 0.028% | 
C1CCC2CCCCC2C1 (stereo unspecified) [Decahydronaphthalene] |  |  |  | 3.14 ± 1.3%
CCCCCCCCCCOS(=O)(=O)O [Decylsulfate] |  | 18.8 ± 4.3% | 50.4 ± 1.6% | 30.8 ± 9%
CC(C)c1ccc2c(c1)CC[C@H]1[C@](C)(C(=O)O)CCC[C@]21C [Dehydroabietic-acid] |  | 29.7 ± 1.9% |  | 
CC[S+]([O-])CCSP(=O)(OC)OC (stereo unspecified) [Demeton-S-methyl-sulfoxide] | 35.2 ± 3.8% | 30.2 ± 2.2% | 42.7 ± 12% | 
C[C@H](CCC(=O)O)[C@H]1CC[C@H]2[C@@H]3CC[C@@H]4C[C@H](O)CC[C@]4(C)[C@H]3C[C@H](O)[C@]12C [Deoxycholic-acid] |  | 38.5 ± 8.1% | 75.8 ± 6.6% | 
CNCCCN1c2ccccc2CCc2ccccc21 [Desipramine] | 1.49 ± 0.66% | 35.8 ± 2.3% | 62.7 ± 6.1% | 
CCNc1nc(N)nc(Cl)n1 [Desisopropylatrazine] | 50.7 ± 4.7% | 38.9 ± 2.4% |  | 
COc1ccc2c(c1)[C@]13CCCC[C@@H]1[C@H](C2)N(C)CC3 [Dextromethorphan] | 0.431 ± 0.16% | 39.3 ± 3.3% | 70.1 ± 5.1% | 
CCCCOP(=O)(O)OCCCC [Di-n-butyl-phosphate] | 40.8 ± 6.1% | 40.5 ± 3.9% |  | 
CCCCCOC(=O)c1ccccc1C(=O)OCCCCC [Di-n-pentylphthalate] |  | 29.6 ± 6.2% |  | 
CC(=O)NCCNC(C)=O [Diacetylethylenediamine] | 0.534 ± 0.055% | 0.155 ± 0.14% |  | 
